Reference: patent publication US7880010B2, “Crystalline forms of a dimethylphenyl compound” (Theravance, Inc., priority 2006, dated 2011)

Target: T1, hM1 receptor (Homo sapiens, UniProt P11229)
T1 construct: expressed in transfected cells; host or cells: CHO
T1 sequence (P11229 1-460): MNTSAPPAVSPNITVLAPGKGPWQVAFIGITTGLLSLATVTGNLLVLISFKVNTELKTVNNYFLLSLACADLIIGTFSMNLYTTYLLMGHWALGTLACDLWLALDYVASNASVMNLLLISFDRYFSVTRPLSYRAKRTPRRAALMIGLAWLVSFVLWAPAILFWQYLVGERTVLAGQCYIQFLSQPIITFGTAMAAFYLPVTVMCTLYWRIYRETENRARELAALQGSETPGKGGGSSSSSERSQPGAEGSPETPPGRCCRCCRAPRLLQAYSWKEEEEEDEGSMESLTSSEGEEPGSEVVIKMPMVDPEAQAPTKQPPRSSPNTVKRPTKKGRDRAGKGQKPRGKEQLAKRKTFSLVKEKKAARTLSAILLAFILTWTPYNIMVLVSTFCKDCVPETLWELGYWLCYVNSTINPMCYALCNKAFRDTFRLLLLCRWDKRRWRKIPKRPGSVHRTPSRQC
Test: Blockade of agonist-mediated calcium release via FLIPR (Assay C)
Format: cell-based
Conditions: CHO cells stably expressing hM1
Experimental: In this functional assay, the functional potency of a test compound as an antagonist of hM1, hM3 and […] receptors was determined by measuring the ability of the test compound to inhibit agonist-mediated increases in intracellular calcium.
CHO cells stably expressing the receptors were seeded into 96-well FLIPR plates the night before the assay was done. Seeded cells were washed twice with FLIPR buffer (10 mM HEPES, pH 7.4, 2 mM calcium chloride, 2.5 mM probenecid in Hank's Buffered Salt Solution (HBSS) without calcium and magnesium) using Cellwash (MTX Labsystems, Inc.) to remove growth media. After washing, each well contained 50 μL of FLIPR buffer. The cells were then incubated with 50 μL/well of 4 μM FLUO-4AM (a 2× solution was made) for 40 minutes at 37° C., 5% carbon dioxide. Following the dye incubation period, cells were washed two times with FLIPR buffer, leaving a final volume of 50 μL in each well.
The dose-dependent stimulation of intracellular Ca^2+ release for oxotremorine was determined so that the test compound could be measured against oxotremorine stimulation at an EC90 concentration. Cells were first incubated with compound dilution buffer for 20 minutes and then oxotremorine was added. […]
The parameters used for the FLIPR were: exposure length of 0.4 seconds, laser strength of 0.5 watts, excitation wavelength of 488 nm, and emission wavelength of 550 nm. Baseline was determined by measuring the change in fluorescence for 10 seconds prior to addition of oxotremorine. Following oxotremorine stimulation, the FLIPR continuously measured the change of fluorescence every 0.5 to 1 second for 1.5 minutes to capture the maximum fluorescence change.
The change of fluorescence was expressed as maximum fluorescence minus baseline fluorescence for each well. The raw data was analyzed against the logarithm of test compound concentration by nonlinear regression with GraphPad Prism (GraphPad Software, Inc., San Diego, Calif.) using the built-in model for sigmoidal dose-response. […]

Cc1cc(NC(=O)CCN2CCC(OC(=O)Nc3ccccc3-c3ccccc3)CC2)c(C)cc1CNC[C@H](O)c1ccc(O)c(NC=O)c1 [compound of formula I, biphenyl-2-ylcarbamic acid 1-[2-(4-{[(R)-2-(3-formylamino-4-hydroxyphenyl)-2-hydroxyethylamino]methyl}-2,5-dimethylphenylcarbamoyl)ethyl]-piperidin-4-yl ester]
Kobs for blockade of agonist-mediated calcium release: less than 10 nM
